Results reported in patent US8524691B2, “Phosphonated rifamycins and uses thereof for the prevention and treatment of bone and joint infections” (The Medicines Company, priority 2008, dated 2013).
In brackets after ≈: the same amount, converted by molar mass. Read-outs that look alike come from different tables or passages of the source.

Tests used:
Assay type in all cases: cell-based
S. aureus ATCC 13709 [1] = test: microbe, parasite or virus in culture; details: for Antibacterial activity (in words, from Table 1): S. aureus MIC
Method: (§1) Susceptibility of S. aureus strains to the known antibiotics and synthesized compounds was determined by following the guidelines set by NCCLS (M26-A). Compounds were diluted two-fold serially in DMSO and transferred to cation-adjusted Mueller Hinton broth (CAMHB; Becton Dickinson). 50 μL of compounds diluted in CAMHB was mixed with 100 μL of bacteria diluted in CAMHB in 96-well microtiter plates. The final concentration of micro-organisms in the assay was 5×10^5c.f.u. per mL and the final concentration of DMSO in the assay was 1.25%. Assays were set up in duplicate and incubated at 37° C. for 18 h. The lowest concentration of compound that inhibited visible growth was reported as the minimum inhibitory concentration (MIC).

[2] = test system: S. aureus ATCC 13709^A, Novobiocin and Rifampicin resistant variant; test: Antibacterial susceptibility (MIC), NCCLS broth microdilution
Method: as §1

S. aureus ATCC 29213 = test: as above
Method: as §1

S. aureus ATCC 13709 [3] = test: microbe, parasite or virus in culture; details: for Serum dependence of antibacterial activity (in words): MIC with versus without serum
Method: as §1
Susceptibility testing experiments were also carried out in the presence of serum. These experiments were carried out similar to the susceptibility testing with the following modifications. 75 μL of compounds diluted in CAMHB was mixed with 75 μL of bacteria diluted in 100% serum from any given source (commercial pooled mouse serum (MS) and human serum (HS), Equitech-Bio Inc.) or diluted in 8% purified human serum albumin (HSA) (Calbiochem). The final concentration of animal serum in the assay was 50% and the final concentration of purified human serum albumin in the assay was 4%; the concentrations of all other components were identical to those described for susceptibility testing.

| Structure (SMILES) | Minimum inhibitory concentration, S. aureus ATCC 13709 (S. aureus ATCC 13709 [1]; CAMHB, 37° C., 18 h) [µg/mL] | Antibacterial activity (in words, from Table 1) (S. aureus ATCC 13709 [1]) | Minimum inhibitory concentration, S. aureus ATCC 13709^A [2] [µg/mL] | Minimum inhibitory concentration, S. aureus ATCC 29213 (S. aureus ATCC 29213; CAMHB, 37° C., 18 h) [µg/mL] | Minimum inhibitory concentration, ATCC 13709 + 50% Mouse Serum (S. aureus ATCC 13709 [3]) [µg/mL] | Minimum inhibitory concentration, ATCC 13709 + 50% Human Serum (S. aureus ATCC 13709 [3]; 50% Human Serum) [µg/mL] | Minimum inhibitory concentration, ATCC 13709 + 50% Rat Serum (S. aureus ATCC 13709 [3]; 50% Rat Serum) [µg/mL] | Minimum inhibitory concentration, ATCC 13709 + 50% Mouse Serum (S. aureus ATCC 13709 [3]; 50% Mouse Serum) [µg/mL] | Serum dependence of antibacterial activity (in words) (S. aureus ATCC 13709 [3]) | Minimum inhibitory concentration, ATCC 13709 + 50% Human Serum (S. aureus ATCC 13709 [3]) [µg/mL] | Minimum inhibitory concentration, S. aureus ATCC 13709 (S. aureus ATCC 13709 [1]) [µg/mL] | Minimum inhibitory concentration, S. aureus ATCC 29213 (S. aureus ATCC 29213) [µg/mL] | Minimum inhibitory concentration, ATCC 13709 + 50% Rat Serum (S. aureus ATCC 13709 [3]) [µg/mL] |
| --- | --- | --- | --- | --- | --- | --- | --- | --- | --- | --- | --- | --- | --- |
| CO[C@H]1/C=C/O[C@@]2(C)Oc3c(C)c(O)c4c(c3C2=O)C2=NC3(CCN(CC(C)C)CC3)NC2=C(NC(=O)/C(C)=C\C=C\[C@H](C)[C@H](OC(=O)CNC(=O)CCCNC(=O)NC(P(=O)(O)O)P(=O)(O)O)[C@@H](C)[C@@H](O)[C@@H](C)[C@H](OC(C)=O)[C@@H]1C)C4=O.N.N [Compound 155] | 32 | near complete loss of activity | >128 | 128 | >128 | 128 | 8 |  |  |  |  |  |  |
| CCCCOC(=O)NCCN(CCCCC(P(=O)(O)O)P(=O)(O)O)CC(=O)O[C@@H]1[C@@H](C)[C@@H](O)[C@@H](C)[C@H](OC(C)=O)[C@H](C)[C@@H](OC)/C=C/O[C@@]2(C)Oc3c(C)c(O)c4c(c3C2=O)C2=NC3(CCN(CC(C)C)CC3)NC2=C(NC(=O)/C(C)=C\C=C\[C@@H]1C)C4=O [Compound 71] | 4 (≈ 3.13 µM) |  | >128 | 8 (≈ 6.26 µM) |  | 16 | 1 | 8 | significant increase in antibacterial activity in serum |  |  |  |  |
| CCCC(=O)OCCN(CCC(P(=O)(O)O)P(=O)(O)O)CC(=O)O[C@@H]1[C@@H](C)[C@@H](O)[C@@H](C)[C@H](OC(C)=O)[C@H](C)[C@@H](OC)/C=C/O[C@@]2(C)Oc3c(C)c(O)c4c(c3C2=O)C2=NC3(CCN(CC(C)C)CC3)NC2=C(NC(=O)/C(C)=C\C=C\[C@@H]1C)C4=O [Compound 52] | 4 (≈ 3.28 µM) |  | >128 | 8 (≈ 6.56 µM) |  | 16 | 0.5 | 2 | significant increase in antibacterial activity in serum |  |  |  |  |
| CO[C@H]1/C=C/O[C@@]2(C)Oc3c(C)c(O)c4c(c3C2=O)C2=NC3(CCN(CC(C)C)CC3)NC2=C(NC(=O)/C(C)=C\C=C\[C@H](C)[C@H](OC(=O)CN(C)C(=O)CNC(=O)[C@@H](Cc2ccccc2)NC(=O)CNC(=O)CCC(P(=O)(O)O)P(=O)(O)O)[C@@H](C)[C@@H](O)[C@@H](C)[C@H](OC(C)=O)[C@@H]1C)C4=O.N.N [Compound 79a] | 16 |  | >128 | 16 | >128 |  | 64 |  |  | >128 |  |  |  |
| CCC(=O)Oc1cc(C)c(OCCCCC(P(=O)(O)O)P(=O)(O)O)c(C)c1CCC(=O)N[C@@H](Cc1ccccc1)C(=O)N(C)CC(=O)O[C@@H]1[C@@H](C)[C@@H](O)[C@@H](C)[C@H](OC(C)=O)[C@H](C)[C@@H](OC)/C=C/O[C@@]2(C)Oc3c(C)c(O)c4c(c3C2=O)C2=NC3(CCN(CC(C)C)CC3)NC2=C(NC(=O)/C(C)=C\C=C\[C@@H]1C)C4=O.N.N [Compound 138] |  | near complete loss of activity | >128 |  | >128 |  |  |  |  | >128 | >128 | >128 | >128 |
